Columns and labels:
FAAH = target: T1, FAAH (Mus musculus, UniProt O08914); assay: Competitive ABPP of FAAH in mouse brain proteome; type: biochemical; settings: gel-based competitive ABPP, 10 μM inhibitor
T1 construct: from tissue; host or cells: mouse brain
T1 sequence (O08914 1-579): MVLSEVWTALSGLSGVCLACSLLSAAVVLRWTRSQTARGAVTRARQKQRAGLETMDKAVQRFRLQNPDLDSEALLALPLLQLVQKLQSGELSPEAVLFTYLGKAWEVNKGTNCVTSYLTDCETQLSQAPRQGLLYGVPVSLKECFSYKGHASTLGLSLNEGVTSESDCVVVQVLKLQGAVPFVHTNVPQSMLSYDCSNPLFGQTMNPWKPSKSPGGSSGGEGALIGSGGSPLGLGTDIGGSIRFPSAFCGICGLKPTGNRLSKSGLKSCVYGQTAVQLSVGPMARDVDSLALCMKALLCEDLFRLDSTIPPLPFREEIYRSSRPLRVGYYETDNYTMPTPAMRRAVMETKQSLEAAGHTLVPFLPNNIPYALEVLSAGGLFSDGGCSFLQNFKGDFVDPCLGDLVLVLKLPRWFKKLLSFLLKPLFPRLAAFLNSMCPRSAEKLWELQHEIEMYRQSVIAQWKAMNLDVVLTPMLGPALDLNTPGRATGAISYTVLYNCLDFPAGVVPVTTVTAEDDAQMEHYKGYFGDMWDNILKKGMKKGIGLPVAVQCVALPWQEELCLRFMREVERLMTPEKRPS
Protocol: (§1) For ABPP experiments, cell lysate and tissue proteomes were treated with 1 μM FP-rhodamine for 30 min at room temperature (50 μL total reaction volume) as described previously (Nomura et al., 2010). Reactions were quenched with one volume of standard 4×SDS/PAGE loading buffer (reducing), separated by SDS/PAGE (10% acrylamide), and visualized in-gel with a Hitachi FMBio IIe flatbed fluorescence scanner (MiraiBio). Inhibitors were preincubated prior (30 min or 4 h at 37° C. in vitro or in situ, respectively) to the addition of FP-rhodamine.

KIAA1363 [1] = target: T2, KIAA1363 (Homo sapiens, UniProt Q6PIU2); assay: Gel-based competitive ABPP in PC3 cell proteomes, in vitro treatment; type: biochemical; design: PC3 cancer cells, which have high endogenous KIAA1363 levels; endogenous in cells; host or cells: PC3
T2 sequence (Q6PIU2 1-408): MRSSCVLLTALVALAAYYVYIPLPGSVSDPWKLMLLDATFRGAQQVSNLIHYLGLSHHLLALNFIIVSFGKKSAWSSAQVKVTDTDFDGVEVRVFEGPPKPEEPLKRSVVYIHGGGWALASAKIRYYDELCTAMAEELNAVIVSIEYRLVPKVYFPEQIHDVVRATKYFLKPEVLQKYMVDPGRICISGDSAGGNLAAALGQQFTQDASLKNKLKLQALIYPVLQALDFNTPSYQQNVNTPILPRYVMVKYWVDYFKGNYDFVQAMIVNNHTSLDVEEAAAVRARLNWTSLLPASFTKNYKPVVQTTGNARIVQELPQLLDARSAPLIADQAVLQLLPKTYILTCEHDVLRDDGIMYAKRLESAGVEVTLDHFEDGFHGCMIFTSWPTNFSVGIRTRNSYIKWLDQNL
Protocol: (§2) Inhibitors were dissolved in DMSO and diluted into media or buffer prior to cell or proteome treatment, respectively. For in vitro treatment, final DMSO concentration was 4%. For in situ treatments of cells for ABPP, lipid measurements, migration, cell-survival, and invasion assays, 2×10^6 cells were seeded in 6 cm dishes (˜100% confluency) 24 h prior to inhibitor pre-treatment (in DMSO at 0.1% final concentration) in serum-free media (3 mL) for the designated time before harvesting cells for ABPP or lipid measurements or before the initiation of migration, cell-survival, and invasion assays.
as §1

LNCaP cells = assay: Cell survival assay in LNCaP cells; type: cell-based, human; settings: 1 μM, 48 h in situ treatment; cells express low levels of KIAA1363
Protocol: as §2
Cell migration, cell survival, and invasion studies were performed as previously described (Nomura et al., 2010). Briefly, migration assays were performed in Transwell chambers (Corning) with 8 μm pore-sized membranes coated with 10 μg/mL collagen at 37° C. for LNCaP (24 h), PC3 (4 h) and DU145 cells (24 h), respectively. Cell survival assays were performed using the Cell Proliferation Reagent WST-1 (Roche) Invasion assays were conducted using the BD Matrigel Invasion Chambers per the manufacturer's protocol. Inhibitors were preincubated for the stated duration before seeding cells into migration, cell-survival, or invasion chambers. Prior to seeding the cells in these chambers, cells were serum-starved for 4 h. Inhibitors were also present during the migration, cell-survival, and invasion assays.

[2] = tested on: serine hydrolase activities detected in the brain proteome; assay: Competitive ABPP-MudPIT of brain membrane proteomes from treated mice; type: in vivo, mouse; settings: 20 mg/kg, oral gavage, 4 hr; off-target is carboxylesterase ES1
Protocol: Competitive ABPP-MudPIT experiments were performed as previously described (Nomura et al., 2010). Briefly, 1 mg of proteome was labeled with 5 μM FP-biotin, followed by solubilization with 1% Triton X-100, denaturation by SDS and heating, avidin precipitation of labeled proteins, and on-bead tryptic digest. Tryptic peptides were then loaded on to a biphasic (strong cation exchange/reverse phase) capillary column and analyzed by two-dimensional liquid chromatography (2D-LC) separation in combination with tandem mass spectrometry using an Agilent 1100 LC system coupled with a ThermoFisher LTQ linear ion trap mass spectrometer. Spectral counts are reported as the average of three samples with the standard error of the mean (SEM).
JW480 was administered by oral gavage (in PEG300, 4 μL/g mouse) or intraperitoneally (in 18:1:1 v/v/v solution of saline:ethanol:emulphor, 10 μL/g). After the indicated amount of time, mice were anesthetized with isoflurane and killed by decapitation. Tissues were removed and then flash frozen in liquid N2. Tissues were stored at −80° C. until use. Animal experiments were conducted in accordance with the guidelines of the institutional Animal Care and Use Committee of The Scripps Research Institute.

KIAA1363 [3] = target: T2, KIAA1363; assay: Competitive ABPP of tumors explanted from treated mice; type: in vivo, mouse; design: PC3 cancer cells, which have high endogenous KIAA1363 levels; endogenous in cells; host or cells: PC3 (2-acetyl MAGE assay also DU145 and SKOV3); settings: 80 mg/kg oral daily; tumors removed 4 hr after final dose (day 33)
Protocol: as §1
Human cancer xenografts were established by transplanting cancer cell lines ectopically into the flank of C.B17 SCID mice (Taconic Farms). Briefly, cells were washed two times with PBS, trypsinized, and harvested in serum-containing medium. Next, the harvested cells were washed two times with serum-free medium and resuspended at a concentration of 2.0×10^4 cells/μL and 100 μL was injected. Growth of the tumors was measured every 3 days with calipers. For chronic JW480 treatment studies, mice were treated with JW480 or vehicle once daily (at approximately the same time everyday) by oral gavage in PEG300 (4 μL/g mouse). The treatments were initiated immediately after ectopic injection of cancer cells.

Structure (SMILES) | Inhibition of FAAH / selectivity versus FAAH (FAAH) | Selectivity for KIAA1363 by gel-based competitive ABPP (KIAA1363 [1]; PC3 cells, also DU145 and LNCaP cells) | IC50 (KIAA1363 [1]; in vitro treatment) | Survival of LNCaP cells (LNCaP cells) | Off-targets among ~30 brain serine hydrolase activities (ABPP-MudPIT) [2] | KIAA1363 activity in explanted tumors (KIAA1363 [3])
COc1ccc(CNC(=O)Oc2cccc3c2OC(C)(C)C3)cc1 [JW148, 2,2-dimethyl-2,3-dihydrobenzofuran-7-yl 4-methoxybenzylcarbamate] | good selectivity |  |  |  |  | 
CC(C)c1ccccc1OC(=O)NCCc1ccc2ccccc2c1 [JW480, 2-isopropylphenyl (2-(naphthalen-2-yl)ethyl)carbamate] |  | excellent selectivity | 12 nM | does not affect | only a single off-target was observed | completely ablated
